Reference: patent US20060058364A1, “Treatment of dependence and dependence related withdrawal symptoms” (priority 2002, published 2006)
Like-named read-outs stand apart in the source and are kept apart here.

Experiments:
[1] = tested on: 5-HT1A receptors or 5-HT1D receptors; conditions: cited from earlier work
[2] = tested on: atipamezole cue (atipamezole-associated lever selection); type: in vivo; conditions: for dose at which full generalization was achieved: training dose 1 mg/kg s.c.
Description: A total of 50 Sprague-Dawley male rats (B&K, Sweden) were used in the drug discrimination experiment at Orion Pharma, Turku, Finland. The rats were housed in solid bottom polypropylene cages with stainless steel mesh lids 5 rats per cage on a 12/12 hour light/dark cycle (lights on at 06.00 a.m.) under standard conditions in 21±1° C. temperature. […] During training period the rats were allowed food 6-15 g/day immediately after the session and during testing period they were allowed 12-15 g/day after the session. The rats adopted well to this feeding schedule and grew slowly but steadily. Rats were drug and experimentally naive at the start of the experiments. All experimentation was approved by the local laboratory animal care and experimentation committee. The animals were housed according to the recommendations of Declaration of Helsinki and DHEW pub. No (NIH) 85-23 entitled “Guide for the care and use of laboratory animals”.
The drugs used were atipamezole HCl and MPV-1730 HCl (Orion Pharma, Finland), d-amphetamine sulphate (Sigma, USA), cocaine HCl (Tamro, Finland)) and desipramine HCl (Sigma, USA). All doses refer to respective salt forms. Drugs were diluted in sterile purified water (Aquasteril, Orion Pharma, Finland) and were prepared daily. Injections were given 30 min before the sessions. Saline (Natrosteril, Orion Pharma, Finland) was used in control administrations. Drugs were administered subcutaneously (s.c.) or intraperiotoneally (i.p.) in a volume of 1 ml/kg or perorally (p.o.) gy a gavage 10 ml/kg.
In the atipamezole discrimination experiment five identical operant chambers enclosed in larger sound and light attenuating, fan ventilated enclosures were used. Each chamber was equipped with two identical levers on one wall. Between these levers was a food cup, where 45 mg reward pellets (F0021, Bio-Serv, Frenchtown, USA) could be presented. The whole operant system was purchased from Rhema-Labortechnik, Hofheim, Germany.
The training to press levers for reward pellets was started with 50 rats with a continuous reinforcement (CRF) schedule, when both levers were active and later by changing daily the active lever. […] The duration of the session to this point was 30 min and thereafter the training sessions were reduced to 15 min. The discrimination training dose of atipamezole (1 mg/kg s.c.) was selected according to the effect of atipamezole (0, 0.1, 0.3, 1 and 3 mg/kg s.c.) on FR-10 responding when tested in the rats (session 30, data not shown). Thereafter, discrimination training was started with 46 rats. The discrimination training was done in following two week sequence: S-D-D-S-S and D-S-S-D-D (D=drug appropriate lever, S=saline lever) (Colpaert F., Niemegeers, C., Janssen, P. Theoretical and methodological considerations on drug discrimination learning. Psychopharmacologia (Berl.) 46: 169-177, 1976.). For half of the rats the right lever was a drug-appropriate lever and for the another half the left lever. During training only the drug- or saline-appropriate lever was active, but both levers were recorded. If a rat chose the correct lever during ten consecutive sessions and the total number of responses before the first reinforcer was 15 or less, the rat was accepted to the drug tests.
When the rats had reached the criterion, they were tested twice a week (usually on Wednesdays and Fridays) with different drugs. The normal sequence of saline or atipamezole was continued on other days. The lever selection had to be correct on the preceding day of the drug test and on the next day after drug test in order to be approved in the results. In the testing day, the rat decided which lever was activated by pressing ten lever presses on either of the levers. The selected lever was activated during the rest of the session. The previous saline day was used as a predrug control value. […]

[3] = tested on: alpha1-adrenergic, dopaminergic, GABAergic, serotonergic (such as 5-HT1A) etc. receptors; conditions: cited from earlier work
[4] = tested on: dopaminergic, 5-hydroxyhyptaminergic receptors and benzodiazepine receptors; conditions: cited from earlier work
amphetamine cue = conditions: rats trained to discriminate d-amphetamine; cited from earlier work
idazoxan cue = conditions: rats trained to discriminate idazoxan; cited from earlier work
[5] = tested on: psychostimulants such as amphetamine and cocaine (cue); conditions: rat, in vivo; cited from earlier work

## COc1ccc2c(c1)CCN1C[C@H]3CCCN(S(C)(=O)=O)[C@H]3C[C@@H]21 [delequamine]
[1]
  affinity on 5-HT1A receptors or 5-HT1D receptors: have affinity

## CCC1(c2c[nH]cn2)Cc2ccccc2C1.Cl [Atipamezole, 4-(2-ethyl-2,3-dihydro-1H-inden-2-yl)-1H-imidazole hydrochloride]
[2]; 0.003-10 mg/kg, FIG. 1
  atipamezole-associated lever selection: dose-responsively increased
[2]; atipamezole p.o., 60 min before session, FIG. 1
  dose at which full generalization was achieved: 1 mg/kg
[2]; atipamezole s.c., 30 min before session, FIG. 1
  dose at which full generalization was achieved: 0.3 mg/kg
[3]
  affinity for any other neurotransmitter receptors: negligible affinity

## COc1ccccc1N1CCN(CCN2C(=O)c3ccccc3C(C)(C)C2=O)CC1 [ARC 239]
[1]
  affinity on 5-HT1A receptors or 5-HT1D receptors: have affinity

## CC1c2ccccc2CN1CC1=NCCN1 (stereo not drawn) [BRL 44408]
[1]
  affinity on 5-HT1A receptors or 5-HT1D receptors: have affinity

## COC(=O)[C@@H]1[C@H]2C[C@H]3c4[nH]c5ccccc5c4CCN3C[C@@H]2CC[C@@H]1O [yohimbine]
[4]
  affinity to other than noradrenergic receptors: has affinity
Amphetamine cue
  generalization to amphetamine: did not generalize

## CCC1(c2c[nH]cn2)Cc2ccc(F)cc2C1 (stereo not drawn) [MPV-1730, 4-(2-ethyl-5-fluoro-2,3-dihydro-1H-inden-2-yl)-1H-imidazole]
[2]; 0.01-1 mg/kg s.c., 30 min before session, FIG. 3
  generalization to atipamezole cue: generalized to atipamezole cue

## COC1(C2=NCCN2)COc2ccccc2O1 (stereo not drawn) [RX821002]
[1]
  affinity on 5-HT1A receptors or 5-HT1D receptors: have affinity

## C[C@H](N)Cc1ccccc1 [d-amphetamine]
[2]; s.c., tested 0.03-1 mg/kg, at doses 0.5 and 1 mg/kg, 30 min before session, FIG. 2
  generalization to atipamezole cue: clearly generalized
Idazoxan cue
  generalization to idazoxan: did not generalize

## CNCCCN1c2ccccc2CCc2ccccc21 [desipramine]
[2]; i.p., 30 min before session, FIG. 4
  generalization to atipamezole: not generalized
[2]; rat, in vivo
  tolerability of higher doses: discontinued due to a prolonged lack of appetite
[5]
  generalisation to psychostimulants: only weakly

## c1ccc2c(c1)OCC(C1=NCCN1)O2 (stereo not drawn) [idazoxan]
[1]
  affinity on 5-HT1A receptors or 5-HT1D receptors: have affinity
Amphetamine cue
  generalization to amphetamine: did not generalize
